This note sets out measurements from patent publication US20240294498A1, “FACTOR XIIA INHIBITORS” (Lunac Therapeutics Ltd, priority 2021, published 2024).

Type in all cases: biochemical
One assay concerns the target FXa (Homo sapiens, UniProt P00742). The assay is described as follows: Determination of selectivity: FXa inhibition (chromogenic substrate S2765). As to conditions: fold selectivity for FXIIa over FXa (human); category. An outline of the steps:
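FXa (5 nM) preincubated with increasing compound (top 500 μM) for 10 mins at 37° C in 50 mM Tris, 137 mM NaCl pH 7.4, 5% DMSO, then S2765 added at its KM. Absorbance at 405 nm followed kinetically for 3 hours; IC50 from initial rates, converted to Ki by Cheng-Prusoff.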

A further assay has as its target T1, FXIIa (Homo sapiens, UniProt P00748).
T1 construct: FXIIa alpha
T1 sequence (P00748 373-615 limits assumed): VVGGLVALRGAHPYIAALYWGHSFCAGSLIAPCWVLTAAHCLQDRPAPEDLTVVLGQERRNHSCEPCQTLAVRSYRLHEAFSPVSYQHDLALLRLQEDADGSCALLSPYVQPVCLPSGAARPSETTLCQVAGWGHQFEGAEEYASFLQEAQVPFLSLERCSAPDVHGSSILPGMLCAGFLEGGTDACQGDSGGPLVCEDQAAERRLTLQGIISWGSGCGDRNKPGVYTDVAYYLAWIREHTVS
T1 sequence (P00748 20-372 partner limits assumed): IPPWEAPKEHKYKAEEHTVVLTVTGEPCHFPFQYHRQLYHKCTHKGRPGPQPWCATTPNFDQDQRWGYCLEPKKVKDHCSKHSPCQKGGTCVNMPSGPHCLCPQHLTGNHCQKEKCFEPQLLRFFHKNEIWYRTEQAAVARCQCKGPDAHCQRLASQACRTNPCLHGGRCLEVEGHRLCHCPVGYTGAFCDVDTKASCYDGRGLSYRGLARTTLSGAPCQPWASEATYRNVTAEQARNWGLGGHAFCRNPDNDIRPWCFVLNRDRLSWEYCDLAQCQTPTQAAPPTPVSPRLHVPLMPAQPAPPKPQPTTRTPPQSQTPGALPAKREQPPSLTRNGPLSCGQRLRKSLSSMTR
The assay is described as follows: Determination of Factor XIIa inhibition (chromogenic substrate S-2302). As to conditions: human FXIIa alpha, Ki category. An outline of the steps: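 Compound preincubated with 10 nM FXIIa for 10 min at 37° C in 50 mM Tris, 137 mM NaCl, pH 7.4, 5% DMSO, top concentration 500 μM; S-2302 added at Km. pNA release followed at 405 nm for 3 h; IC50 from initial rates, converted to Ki via Ki = IC50/(1+[S]/Km).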

Another assay has as its target T2, thrombin (Homo sapiens, UniProt P00734).
T2 construct: FXa (5 nM) and thrombin (5 nM)
The assay is described as follows: Determination of selectivity: thrombin inhibition (chromogenic substrate GPR). As to conditions: fold selectivity for FXIIa over thrombin (human); category. The method, boiled down: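 Thrombin (5 nM) preincubated with increasing compound concentrations (top 500 μM, 5% DMSO) 10 min at 37 °C in 50 mM Tris, 137 mM NaCl pH 7.4, then GPR chromogenic substrate at its KM. pNA release read kinetically at 405 nm for 3 h at 37 °C. IC50 from initial rates, converted to Ki via Cheng–Prusoff.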

Molecules are shown by their SMILES.

Chain of FXa (P00742 235-488 limits assumed): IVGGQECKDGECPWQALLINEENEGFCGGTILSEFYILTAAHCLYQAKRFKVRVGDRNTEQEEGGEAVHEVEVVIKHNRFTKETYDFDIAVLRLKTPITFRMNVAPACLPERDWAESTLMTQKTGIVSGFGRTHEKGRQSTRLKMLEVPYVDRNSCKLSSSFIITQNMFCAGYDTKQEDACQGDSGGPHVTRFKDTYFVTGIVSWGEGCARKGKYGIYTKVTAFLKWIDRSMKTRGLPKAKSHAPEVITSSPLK
Chain of FXa (P00742 41-179 partner limits assumed): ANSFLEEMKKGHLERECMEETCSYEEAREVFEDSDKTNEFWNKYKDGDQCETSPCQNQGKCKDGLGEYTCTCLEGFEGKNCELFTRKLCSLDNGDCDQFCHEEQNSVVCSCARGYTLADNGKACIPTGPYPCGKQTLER

Turning to `Cc1nnc2cc(CNC(=O)[C@@H]3C[C@@H](Cc4ccc(C5CC5)cc4)CN3C(=O)[C@@H]3NCCC[C@@H]3C(=O)N3CCCC3)ccn12` [Example M06006, (2S,4R)-4-(4-cyclopropylbenzyl)-N-((3-methyl-[1,2,4]triazolo[4,3-a]pyridin-7-yl)methyl)-1-((2R,3S)-3-(pyrrolidine-1-carbonyl)piperidine-2-carbonyl)pyrrolidine-2-carboxamide], the “FXa (human)/FXIIa alpha (human)” value at FXa is given as “∘∘∘”. The compound also registered a Ki at FXIIa of 200 to 800 nM. Further, the “Thrombin (human)/FXIIa alpha (human)” value on thrombin is listed as “+++ (fold selectivity values greater than 100)”.

For the compound `Cn1ncc2cc(CNC(=O)[C@@H]3C[C@@H](Cc4ncc(C5CC5)o4)CN3C(=O)[C@@H]3NCCC[C@@H]3C(=O)N3CCCC3)ccc21` [Example M06009], the “FXa (human)/FXIIa alpha (human)” value on FXa is “∘∘∘”. The same compound registered a Ki at FXIIa of 200 to 800 nM. Also, the “Thrombin (human)/FXIIa alpha (human)” value on thrombin was “+++ (fold selectivity values greater than 100)”.

Turning to `Cc1ccc(C[C@@H]2C[C@@H](C(=O)NCc3ccc4c(cnn4C)c3)N(C(=O)[C@@H]3NCCC[C@@H]3C(=O)N3CC[C@@H](N(C)C)C3)C2)cc1` [Example M06010, (2S,4R)-1-((2R,3S)-3-((R)-3-(dimethylamino)pyrrolidine-1-carbonyl)piperidine-2-carbonyl)-N-((1-methyl-1H-indazol-5-yl)methyl)-4-(4-methylbenzyl)pyrrolidine-2-carboxamide], on FXa, the “FXa (human)/FXIIa alpha (human)” value is reported as “∘∘∘”. On FXIIa, this compound returned a Ki of 200 to 800 nM. Moreover, the “Thrombin (human)/FXIIa alpha (human)” value at thrombin is “+++ (fold selectivity values greater than 100)”.

With `Cc1ccc(C[C@@H]2C[C@@H](C(=O)NCc3ccc4c(cnn4C)c3)N(C(=O)[C@@H]3NCCC[C@@H]3C(=O)N3CC[C@H](N(C)C)C3)C2)cc1` [Example M06013, (2S,4R)-1-((2R,3S)-3-((S)-3-(dimethylamino)pyrrolidine-1-carbonyl)piperidine-2-carbonyl)-N-((1-methyl-1H-indazol-5-yl)methyl)-4-(4-methylbenzyl)pyrrolidine-2-carboxamide], at FXa, the “FXa (human)/FXIIa alpha (human)” value is given as “∘∘∘”. Moreover, the Ki on FXIIa is < 200 nM. Moreover, the “Thrombin (human)/FXIIa alpha (human)” value on thrombin was “+++ (fold selectivity values greater than 100)”.

In the case of `Cn1ncc2cc(CNC(=O)[C@@H]3C[C@@H](Cc4ccc(OC(F)F)cc4)CN3C(=O)[C@@H]3NCCC[C@@H]3C(=O)N3CCCC3)ccc21` [Example M06021], the “FXa (human)/FXIIa alpha (human)” value at FXa is “∘∘∘”. On FXIIa, the Ki was in the range of 200 to 800 nM. For the same compound, the “Thrombin (human)/FXIIa alpha (human)” value at thrombin is reported as “+++ (fold selectivity values greater than 100)”.

Take `Cc1ccc(C[C@@H]2C[C@@H](C(=O)NCc3ccc4c(cnn4C)c3)N(C(=O)[C@@H]3NCCC[C@@H]3C(=O)N3CCCC3)C2)s1` [Example M06030, (2S,4S)-N-((1-methyl-1H-indazol-5-yl)methyl)-4-((5-methylthiophen-2-yl)methyl)-1-((2R,3S)-3-(pyrrolidine-1-carbonyl)piperidine-2-carbonyl)pyrrolidine-2-carboxamide]: the “FXa (human)/FXIIa alpha (human)” value at FXa was “∘∘∘”. This compound returned a Ki at FXIIa of 200 to 800 nM. In addition, on thrombin, the “Thrombin (human)/FXIIa alpha (human)” value is recorded as “++ (a fold selectivity value of 10 to 100)”.

`Cc1ccc(C[C@@H]2C[C@@H](C(=O)NCc3ccc4c(cnn4C)c3)N(C(=O)[C@@H]3NCCC[C@@H]3C(=O)N(C)C3CCN(C)C3)C2)cc1` (stereo partly drawn) [Example M06033, (2R,3S)-N-methyl-2-((2S,4R)-2-(((1-methyl-1H-indazol-5-yl)methyl)carbmoyl)-4-(4-methylbenzyl)pyrrolidine-1-carbonyl)-N-(1-methylpyrrolidin-3-yl)piperidine-3-carboxamide]: the “FXa (human)/FXIIa alpha (human)” value at FXa is recorded as “∘∘∘”. For the same compound, the Ki at FXIIa was < 200 nM. For the same compound, the “Thrombin (human)/FXIIa alpha (human)” value on thrombin is recorded as “+++ (fold selectivity values greater than 100)”.

`Cc1ccc(C[C@@H]2C[C@@H](C(=O)NCc3ccc4c(cnn4C)c3)N(C(=O)[C@@H]3NCCC[C@@H]3C(=O)N(C)C3CCN(C)C3)C2)cc1` (stereo partly drawn) [Example M06034, (2R,3S)-N-methyl-2-((2S,4R)-2-(((1-methyl-1H-indazol-5-yl)methyl)carbamoyl)-4-(4-methylbenzyl)pyrrolidine-1-carbonyl)-N-(1-methylpyrrolidin-3-yl)piperidine-3-carboxamide]: the “FXa (human)/FXIIa alpha (human)” value on FXa is given as “∘∘∘”. Further, at FXIIa, the Ki was < 200 nM. In addition, the “Thrombin (human)/FXIIa alpha (human)” value at thrombin is listed as “+++ (fold selectivity values greater than 100)”.

Take `Cc1ccc(C[C@@H]2C[C@@H](C(=O)NCc3ccc4c(cnn4C)c3)N(C(=O)[C@@H]3NCCC[C@@H]3C(=O)N(C)CCN3CCCC3)C2)cc1` [Example M06039, (2R,3S)-N-methyl-2-((2S,4R)-2-(((1-methyl-1H-indazol-5-yl)methyl)carbamoyl)-4-(4-methylbenzyl)pyrrolidine-1-carbonyl)-N-(2-(pyrrolidin-1-yl)ethyl)piperidine-3-carboxamide]: on FXa, the “FXa (human)/FXIIa alpha (human)” value is “∘∘∘”. On FXIIa, the Ki is < 200 nM. The “Thrombin (human)/FXIIa alpha (human)” value at thrombin is given as “+++ (fold selectivity values greater than 100)”.

In the case of `Cn1ncc2cc(CNC(=O)[C@@H]3C[C@@H](Cc4cc(C5CC5)on4)CN3C(=O)[C@@H]3NCCC[C@@H]3C(=O)N3CCC[C@@H]3C(F)(F)F)ccc21` [Example M06047, (2S,4S)-4-+(5-cyclopropylisoxazol-3-yl)methyl+-N-+(1-methylindazol-5-yl)methyl+-1-+(2R,3S)-3-+(2R)-2-(trifluoromethyl)pyrrolidine-1-carbonyl+piperidine-2-carbonyl+pyrrolidine-2-carboxamide], the “FXa (human)/FXIIa alpha (human)” value at FXa is given as “∘∘∘”. In addition, the Ki at FXIIa was < 200 nM. Further, the “Thrombin (human)/FXIIa alpha (human)” value on thrombin was “+++ (fold selectivity values greater than 100)”.

On to `Cc1ccc(C[C@@H]2C[C@@H](C(=O)NCc3ccc4c(cnn4C)c3)N(C(=O)[C@@H]3NCCC[C@@H]3C(=O)N(CCN(C)C)C3CC3)C2)cc1` [Example M06048, (2R,3S)-N-cyclopropyl-N-(2-(dimethylamino)ethyl)-2-((2S,4R)-2-(((1-methyl-1H-indazol-5-yl)methyl)carbamoyl)-4-(4-methylbenzyl)pyrrolidine-1-carbonyl)piperidine-3-carboxamide], for which, on FXa, the “FXa (human)/FXIIa alpha (human)” value is listed as “∘∘∘”. For the same compound, on FXIIa, the inhibition constant Ki was < 200 nM. Further, the “Thrombin (human)/FXIIa alpha (human)” value at thrombin is recorded as “+++ (fold selectivity values greater than 100)”.

Turning to `Cc1ccc(C[C@@H]2C[C@@H](C(=O)NCc3ccc4c(cnn4C)c3)N(C(=O)[C@@H]3NCCC[C@@H]3C(=O)N(C)CCN(C)C3CC3)C2)cc1` [Example M06049, (2R,3S)-N-[2-[cyclopropyl(methyl)amino]ethyl]N-methyl-2-[(2S,4R)-2-[(1-methylindazol-5-yl)methylcarbamoyl]-4-(p-tolylmethyl)pyrrolidine-1-carbonyl]piperidine-3-carboxamide], the “FXa (human)/FXIIa alpha (human)” value on FXa is “∘∘∘”. Besides, the Ki on FXIIa is < 200 nM. Also, the “Thrombin (human)/FXIIa alpha (human)” value at thrombin was “+++ (fold selectivity values greater than 100)”.

Regarding `CN(C)CCN(C)C(=O)[C@H]1CCCN[C@H]1C(=O)N1C[C@H](Cc2ccc(C3CC3)cc2)C[C@H]1C(=O)NCc1ccc2c(cnn2C)c1` [Example M06060, (2R,3S)-2-((2S,4R)-4-(4-cyclopropylbenzyl)-2-(((1-methyl-1H-indazol-5-yl)methyl)carbamoyl)pyrrolidine-1-carbonyl)-N-(2-(dimethylamino)ethyl)-N-methylpiperidine-3-carboxamide], the “FXa (human)/FXIIa alpha (human)” value at FXa is listed as “∘∘∘”. For the same compound, the Ki at FXIIa was < 200 nM. Besides, on thrombin, the “Thrombin (human)/FXIIa alpha (human)” value was “+++ (fold selectivity values greater than 100)”.

`Cc1ccc(C[C@@H]2C[C@@H](C(=O)NCc3ccc4c(cnn4C)c3)N(C(=O)[C@@H]3NCCC[C@@H]3C(=O)N(C)C3CCN(C)CC3)C2)cc1` [Example M06061, (2R,3S)-N-methyl-2-((2S,4R)-2-(((1-methyl-1H-indazol-5-yl)methyl)carbamoyl)-4-(4-methylbenzyl)pyrrolidine-1-carbonyl)-N-(1-methylpiperidin-4-yl)piperidine-3-carboxamide]: on FXa, the “FXa (human)/FXIIa alpha (human)” value is “∘∘∘”. At FXIIa, the Ki is < 200 nM. The “Thrombin (human)/FXIIa alpha (human)” value on thrombin is “+++ (fold selectivity values greater than 100)”.
